Source: patent US8993247B2, “Assay for vascular calcification” (King's College London, priority 2010, dated 2015)

What was measured:
[1] = test system: human smooth muscle cells; assay type: cell-based
Experimental: A—VSMCs were incubated in the absence or presence of high Ca/P (2.5 mM Ca and 2.5 mM P) in 2% FBS/M199 media for 5 days and subjected to alizarin D staining Quantification shown graphically in B. Mean±SD, n=3. C—pictures of VSMCs were taken using light microscopy of alizarin-D stained VSMCs. 1.5—BSA control; 2.6−+5 mM GW4869; 3.7−+1.3% DSMO; 4.8−+1 uM Y-27632.

[2] = test system: human smooth muscle cells; assay: Matrix vesicle release by VSMCs (western blot of CD63 and Fetuin A in MV lysates, CD63 densitometry); assay type: cell-based; conditions: matrix vesicle markers CD63 and Fetuin A in MV lysates, n=3
Experimental: Panel B, quantification of matrix vesicle release by VSMCs was performed using densitometry analysis of CD63, presented in MV as defined by western-blot analysis (shown in A). Mean±SD, n=3.

[3] = test system: VSMCs
Experimental: A—apoptosis of VSMCs in the presence of GW4869 as detected by AnnexinV-FITC binding VSMC were treated with 5 mM GW4869 in the absence or presence of high Ca/P and the level of apoptosis was determined by phospahtidylserine externalization.
VSMCs were cultured in the presence or absence of GW4869 and with or without high Ca and P in the media containing 2% serum for 5 days.
We therefore compared an effect of GW4869 on cell survival in the presence of raised extracellular concentrations of Ca and P in the media containing 2% serum.

Question: With C[C@@H](N)[C@H]1CC[C@H](C(=O)Nc2ccncc2)CC1 [Y 27632] as the molecule, how does the “calcification of VSMCs” value ([1]; high Ca/P (2.5 mM Ca and 2.5 mM P), media with 2% serum, 5 days, 5 mM GW4869, 1 uM Y-27632) read?
Answer: had no effect

Question: For Cl.Cl.O=C(/C=C/c1ccc(/C=C/C(=O)Nc2ccc(C3=NCCN3)cc2)cc1)Nc1ccc(C2=NCCN2)cc1 [GW4869], which “matrix vesicles release by human smooth muscle cells” value [2] is on record?
Answer: inhibition of matrix vesicles release

Question: And the “number of VSMCs in wells” value [1]?
Answer: dramatic reduction in the number of VSMCs

Question: And the “apoptosis of GW4869-treated VSMCs with high Ca and P compared with without” value [3]?
Answer: not increased
